# Patent US9649350B2, “Use for dendropanax morbifera extract for adjusting 15- hydroxyprostaglandin dehydrogenase and PGE 2 activity” (INDUSTRY-ACADEMIC COOPERATION FOUNDATION, CHOSUN UNIVERSITY, priority 2012, dated 2017)
# Tests used:
# HaCaT cells = assay: In vitro scratch analysis in HaCaT cells; assay type: cell-based, human; conditions: scratch model with 15-PGDH and its coenzyme NAD+
# Procedure: For in vitro scratch analysis (Hintermann et al., 2001; Koivisto et al., 2006), HaCaT cells were seeded 3×10^5 cells per well on 6-well plates and cultured until 80% confluence was reached. Then, culture medium was replaced with serum-free medium containing mitomycin (10 μg/mL) and cells were cultured for 2 hours to block the proliferation of wound and washed with PBS. Scratch was made by sterilized 200 μL pipette tip and washed again.
# The process of wound healing was observed by taking photographs of identical spots before and after the culture. Experiment was repeated for 3 times and representative photos were illustrated Immediately after the formation of scratch, photos of scratch were taken by microscope (×100) and 48 hours after the culture, photos were taken once more. By measuring the distance between scratch, the % recovery rate by drug was calculated in comparison with the negative control group.
# In the meantime, in order to investigate whether PGE2 is directly involved in scratch healing, 15-PGDH and its coenzyme NAD^+ were treated in identical model system.
# ICR mice [1] = assay: In vivo wound healing, 5 mm circular wound, H&E tissue staining; conditions: TGF-β1 20 ng/day
# Procedure: To confirm the wound healing effect of Dendropanax morbifera extract of the present invention in vivo, following experiments were conducted. First, 7 week old male ICR mice (average weight: 25 g) were purchased from Damul Science Co. (Daejuen, Korea) and after a week of adjustment period, they were anesthetized by administering anesthetic (zoletil, 50 μL) into the abdominal cavity and then circular wound with diameter of 5 mm was made under anesthesia. From a day later, being divided into 4 groups, wound of each group was treated with drugs daily basis as below while 10 μL of drugs were applied to wound of each group and the degree of healing was observed by tissue staining Animal experiments conducted in the examples were approved by Chonnam National University animal experiment ethics committee (IRB) (CNU IACUC-YB-R-2012-12) and tissue staining was done by fragmenting the wounded tissue of mice on which the above experiment of 4 groups was conducted and stained with hemtoxylin-Eosin (H & E). The distance of recovered wound was measured by visualizing stained tissues with microscope (40×). Moreover, the wound healing efficiency was calculated based on the distance measured.
# ICR mice [2] = assay: In vivo gastric ulcer prevention, HCl/ethanol-induced gastric lesion; conditions: oral, 24 h and 1 h before HCl/ethanol; DMHE 0.87 mg/kg, sucralfate 100 mg/kg
# From the text: To investigate the prevention effect of Dendropanax morbifera for gastric ulcer, […] male ICR mice with weight of 20±2 g were used. The mice above were purchased from Damul Science Co. (Daejuen, Korea). Animal experiments conducted in the examples were approved by Chonnam National University animal experiment ethics committee (IRB) (CNU IACUC-YB-R-2012-11).
# The above-described animals were divided into 3 groups (for each group, n=7) that comprise normal group (vehicle 0.5% CMC (carboxyl methylcellulose)), positive control group (sucralfate, 100 mg/kg in 0.5% CMC) and experimental group (Dendropanax morbifera leaf hexane extract in 0.5% CMC).
# Balanced diet was provided to the animals and they were allowed to drink water freely. One week later, animals were forced to fast for all day long. 24 hours before inducing the […] bleeding, Dendropanax morbifera hexane extract (DMHE, dissolved in 0.5% CMC) was administered with oral dose of 0.87 mg/kg and administered once more 1 hour before HCl/ethanol was applied. It was conducted for the negative (0.5% CMC, 1 mL/kg) and positive control group (sucralfate, 100 mg/kg in 0.5% CMC) simultaneously. By administering HCl/ethanol mixture containing 150 mM HCl in 60% ethanol into stomach, gastric lesion of hemorrhage was induced. […]
Substance,wound healing effect on treatment with 15-PGDH and NAD+ (HaCaT cells),distance between wound (ICR mice [1]; 4th day after drug treatment),% of healing compared to initial wound diameter (5 mm) (ICR mice [1]; 4th day),"gastric lesion (bleeding, edema) (ICR mice [2])"
"TGF-β1: transforming growth factor β1, a cytokine; positive control for wound healing",completely vanished,1.72 mm,65.6%,–
sucralfate,–,–,–,have not shown any type of lesion
